US8399480B2, “Hydroxymethyl pyrrolidines as beta 3 adrenergic receptor agonists” (Merck Sharp & Dohme Corp., priority 2008, dated 2013)
Where two headings read alike, the source gives them in different places.

Target: T1, human β3 adrenergic receptor (Homo sapiens, UniProt P13945)
T1 construct: expressed in transfected cells; host or cells: Chinese hamster ovary (CHO) cells, stably transfected
Assay: Functional assay: cAMP production (LANCE TR-FRET) in CHO cells stably transfected with cloned β3 adrenergic receptor
Type: cell-based
In short: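 Agonist-stimulated cAMP in CHO cells stably expressing human β3 receptor, 6,000 cells per well in HBSS/HEPES/0.1% BSA with 0.6 mM IBMX, 30 min at room temperature. LANCE TR-FRET readout converted to cAMP via standard curve; maximal stimulation defined with isoproterenol.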

[1] = given as a range, cAMP, CHO cells, read-out: human β3 functional activity
[2] = Table 4, human β3 functional activity, read-out: Human β Binding
[3] = Table 8, read-out: Human β3 Functional
[4] = Table 5, read-out: Human β3 Functional
[5] = human β3 functional activity, shown as ranges, Table 13, read-out: Human β3 Functional

T1 sequence (P13945 whole entry): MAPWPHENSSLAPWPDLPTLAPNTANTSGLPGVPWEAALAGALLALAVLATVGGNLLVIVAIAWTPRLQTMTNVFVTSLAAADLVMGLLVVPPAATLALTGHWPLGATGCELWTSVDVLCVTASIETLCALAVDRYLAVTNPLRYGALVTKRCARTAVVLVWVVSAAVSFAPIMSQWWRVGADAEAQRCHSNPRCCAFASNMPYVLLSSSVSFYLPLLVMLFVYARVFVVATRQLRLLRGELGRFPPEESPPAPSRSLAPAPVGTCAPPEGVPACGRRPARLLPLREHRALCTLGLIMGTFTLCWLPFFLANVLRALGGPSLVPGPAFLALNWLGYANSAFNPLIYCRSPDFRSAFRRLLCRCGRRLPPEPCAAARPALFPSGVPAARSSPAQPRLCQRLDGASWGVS

Compound	EC50 [2] [nM]	EC50 [4] [nM]	also measured
CC(C(=O)Nc1ccc(C[C@@H]2CC[C@H]([C@H](O)c3cccc(F)c3)N2)cc1)c1cscn1 (single isomer, unassigned) [Example 274]			EC50 [1]: 11 to 100 nM
O=C(Cn1c(=O)[nH]c(=O)c2ccccc21)Nc1ccc(C[C@@H]2CC[C@H]([C@H](O)c3ccccc3)N2)cc1 [Example 57]	1 to 10		
O=C(Cc1ncccn1)Nc1ccc(C[C@@H]2CC[C@H]([C@H](O)c3ccccc3)N2)cc1 [Example 46]	11 to 100		
O=S(=O)(Cc1ccncc1)Nc1ccc(C[C@@H]2CC[C@H]([C@H](O)c3ccccc3)N2)cc1 [Example 250]			EC50 (Table 7, β3AR-cAMP, read-out: Human β3 Functional): 101 to 1000 nM
CN(Cc1cscn1)C(=O)Nc1ccc(C[C@@H]2CC[C@H]([C@H](O)c3ccccc3)N2)cc1 [Example 253]			EC50 [3]: 11 to 100 nM
CC(C(=O)Nc1ccc(C[C@@H]2CC[C@H]([C@H](O)c3cccc(F)c3)N2)cc1)c1cscn1 (single isomer, unassigned) [Example 275]			EC50 [1]: < 1 nM
Cc1nnc2n1CCC2C(=O)Nc1ccc(C[C@@H]2CC[C@H]([C@H](O)c3ccccc3)N2)cc1 (single isomer, unassigned) [Example 124]		1 to 10	
O=C(Nc1ccc(CC2CCC(C(O)c3cccc(Cl)c3)N2)cc1)C1CCc2sc(F)nc21 (single isomer, unassigned) [Example 300]			EC50 [5]: 1 to 10 nM
Cc1nc2c(s1)CCC2C(=O)Nc1ccc(C[C@@H]2CC[C@H]([C@H](O)c3ccccc3)N2)cc1 (single isomer, unassigned) [Example 119]		< 1	
Cc1nc(CC(=O)Nc2ccc(C[C@@H]3CC[C@H]([C@H](O)c4ccccc4)N3)cc2)no1 [Example 74]	1 to 10		
O=C(Nc1ccc(C[C@@H]2CC[C@H]([C@H](O)c3ccccc3)N2)cc1)C1CCCc2ccccc21 (single isomer, unassigned) [Example 112]		11 to 100	
Nc1nc2c(s1)CCCC2C(=O)Nc1ccc(C[C@@H]2CC[C@H]([C@H](O)c3ccccc3)N2)cc1 (single isomer, unassigned) [Example 117]		< 1	
CN1CCCN(CC(=O)Nc2ccc(C[C@@H]3CC[C@H]([C@H](O)c4ccccc4)N3)cc2)C1=O [Example 99]	11 to 100		
O=C(Cn1nc2ccccc2n1)Nc1ccc(C[C@@H]2CC[C@H]([C@H](O)c3ccccc3)N2)cc1 [Example 5]	1 to 10		
CC(NS(=O)(=O)Cc1ccccc1)C(=O)Nc1ccc(C[C@@H]2CC[C@H]([C@H](O)c3ccccc3)N2)cc1 (stereo partly drawn) [Example 273]			EC50 (Table 9, read-out: Human β^3 Functional): 11 to 100 nM
O=C(Cn1cnc2ccccc2c1=O)Nc1ccc(C[C@@H]2CC[C@H]([C@H](O)c3ccccc3)N2)cc1 [Example 16]	1 to 10		
O=C(Nc1ccc(C[C@@H]2CC[C@H]([C@H](O)c3ccccc3)N2)cc1)C1CCc2ccccc2C1 (single isomer, unassigned) [Example 109]		1000 to 3000	
O=C(Nc1ccc(C[C@@H]2CC[C@H]([C@H](O)c3ccccc3)N2)cc1)c1ccccc1COc1ccccc1 [Example 31]	101 to 1000		
C[C@H](C(=O)Nc1ccc(C[C@@H]2CC[C@H]([C@H](O)c3ccccc3)N2)cc1)c1csc(N)n1 [Example 105]		< 1	

Compound	EC50 [2] [nM]	EC50 [4] [nM]	also measured
O=C(Nc1ccc(CC2CCC(C(O)c3ccccc3)N2)cc1)C1Cc2ccccc2C1 (stereo not drawn) [Example 106]		11 to 100	
Cc1nc2c(s1)CCC2C(=O)Nc1ccc(C[C@@H]2CC[C@H]([C@H](O)c3ccccc3)N2)cc1 (single isomer, unassigned) [Example 118]		1 to 10	
O=C(CC1NC(=O)NC1=O)Nc1ccc(C[C@@H]2CC[C@H]([C@H](O)c3ccccc3)N2)cc1 (stereo partly drawn) [Example 69]	101 to 1000		
O=C(Cn1nccn1)Nc1ccc(C[C@@H]2CC[C@H]([C@H](O)c3ccccc3)N2)cc1 [Example 81]	11 to 100		
O=C(Nc1ccc(C[C@@H]2CC[C@H]([C@H](O)c3ccccc3)N2)cc1)C1CCCN1c1cccc(I)c1 (stereo partly drawn) [Example 39]	11 to 100		
Cc1nn(CC(=O)Nc2ccc(C[C@@H]3CC[C@H]([C@H](O)c4ccccc4)N3)cc2)c(=O)c2ccccc12 [Example 15]	1 to 10		
Nc1nc2c(s1)CCC2C(=O)Nc1ccc(CC2CCC(C(O)c3ccc(F)cc3)N2)cc1 (single isomer, unassigned) [Example 282]			EC50 (Table 11, read-out: Human β3 Functional): 11 to 100 nM
O=C(Cc1nnc(-c2ccn[nH]2)[nH]1)Nc1ccc(C[C@@H]2CC[C@H]([C@H](O)c3ccccc3)N2)cc1 [Example 27]	1 to 10		
CC(C(=O)Nc1ccc(CC2CCC(C(O)c3cccc(Cl)c3)N2)cc1)c1cscn1 (single isomer, unassigned) [Example 302]			EC50 [5]: 1 to 10 nM
Nc1nc2c(s1)CCC2C(=O)Nc1ccc(CC2CCC(C(O)c3cccc(Cl)c3)N2)cc1 (single isomer, unassigned) [Example 310]			EC50 (human β3 functional activity, shown as ranges, Table 14, read-out: Human β3 Functional): < 1 nM
C[C@@H](C(=O)Nc1ccc(C[C@@H]2CC[C@H]([C@H](O)c3ccccc3)N2)cc1)c1csc(N)n1 [Example 104]		< 1	
CC(NC(=O)Nc1ccc(C[C@@H]2CC[C@H]([C@H](O)c3ccccc3)N2)cc1)c1cscn1 (stereo partly drawn) [Example 252]			EC50 [3]: 101 to 1000 nM
Nc1nc(CC(=O)Nc2ccc(C[C@H]3CC[C@H]([C@H](O)c4ccccc4)N3)cc2)cs1 [Example 3, 2-(2-Amino-1,3-thiazol-4-yl)-N-[4-({(2R,5R)-[(R)hydroxy(phenyl)methyl]pyrrolidinyl}methyl)phenyl]acetamide]			EC50 [1]: 11 to 100 nM
O=C(NCc1nnc(-c2ccccc2)[nH]1)Nc1ccc(C[C@@H]2CC[C@H]([C@H](O)c3ccccc3)N2)cc1 [Example 255]			EC50 [3]: 1 to 10 nM
O=C(Nc1ccc(C[C@@H]2CC[C@H]([C@H](O)c3cccc(F)c3)N2)cc1)[C@H]1CCc2scnc21 [Example 278]			EC50 (Table 10, β3AR-cAMP, read-out: Human β3 Functional): 11 to 100 nM
O=C(Cn1ccc2ncccc2c1=O)Nc1ccc(C[C@@H]2CC[C@H]([C@H](O)c3ccccc3)N2)cc1 [Example 62]	1 to 10		
Cc1nc(C)c(CC(=O)Nc2ccc(C[C@@H]3CC[C@H]([C@H](O)c4ccccc4)N3)cc2)s1 [Example 9]	101 to 1000		
O=C(Cn1[nH]c(=O)c2ccccc2c1=O)Nc1ccc(C[C@@H]2CC[C@H]([C@H](O)c3ccccc3)N2)cc1 [Example 53]	1 to 10		

Further lines, with some results ahead:

EC50 [2] [nM]	EC50 [4] [nM]	Compound	also measured
	1 to 10	CC(C(=O)Nc1ccc(CC2CCC(C(O)c3ccccc3)N2)cc1)c1ccn(C)n1 (single isomer, unassigned) [Example 187]	
	1 to 10	CC(C(=O)Nc1ccc(C[C@@H]2CC[C@H]([C@H](O)c3ccccc3)N2)cc1)c1nccs1 (single isomer, unassigned) [Example 201]	
	1 to 10	CC(C(=O)Nc1ccc(C[C@@H]2CC[C@H]([C@H](O)c3ccccc3)N2)cc1)N1CCOC1=O (single isomer, unassigned) [Example 208]	
	11 to 100	Cc1noc2c1CCC2C(=O)Nc1ccc(C[C@@H]2CC[C@H]([C@H](O)c3ccccc3)N2)cc1 (single isomer, unassigned) [Example 140]	
	1 to 10	CC(C(=O)Nc1ccc(C[C@@H]2CC[C@H]([C@H](O)c3ccccc3)N2)cc1)n1cnnn1 (single isomer, unassigned) [Example 172]	
	11 to 100	O=C(Nc1ccc(C[C@@H]2CC[C@H]([C@H](O)c3ccccc3)N2)cc1)C1CCc2ncnn21 (single isomer, unassigned) [Example 129]	
	1 to 10	CC(C(=O)Nc1ccc(C[C@@H]2CC[C@H]([C@H](O)c3ccccc3)N2)cc1)n1nncc1C(N)=O (single isomer, unassigned) [Example 199]	
	101 to 1000	Cc1nnc2n1C(C(=O)Nc1ccc(C[C@@H]3CC[C@H]([C@H](O)c4ccccc4)N3)cc1)CC2 (single isomer, unassigned) [Example 127]	
